Assay results: ChEMBL document CHEMBL1148524, “Novel and selective alpha(v)beta3 receptor peptide antagonist: design, synthesis, and biological behavior” (J Med Chem, 2006)

Target: Integrin alpha-V/beta-3 (Homo sapiens, UniProt P05106+P06756)
Experiment: Inhibition of adhesion of K562 cells expressing alphaVbeta3 integrin receptor to vitronectin
Type: cell-based

Chain of Integrin alpha-V/beta-3 (P05106 27-788 limits assumed): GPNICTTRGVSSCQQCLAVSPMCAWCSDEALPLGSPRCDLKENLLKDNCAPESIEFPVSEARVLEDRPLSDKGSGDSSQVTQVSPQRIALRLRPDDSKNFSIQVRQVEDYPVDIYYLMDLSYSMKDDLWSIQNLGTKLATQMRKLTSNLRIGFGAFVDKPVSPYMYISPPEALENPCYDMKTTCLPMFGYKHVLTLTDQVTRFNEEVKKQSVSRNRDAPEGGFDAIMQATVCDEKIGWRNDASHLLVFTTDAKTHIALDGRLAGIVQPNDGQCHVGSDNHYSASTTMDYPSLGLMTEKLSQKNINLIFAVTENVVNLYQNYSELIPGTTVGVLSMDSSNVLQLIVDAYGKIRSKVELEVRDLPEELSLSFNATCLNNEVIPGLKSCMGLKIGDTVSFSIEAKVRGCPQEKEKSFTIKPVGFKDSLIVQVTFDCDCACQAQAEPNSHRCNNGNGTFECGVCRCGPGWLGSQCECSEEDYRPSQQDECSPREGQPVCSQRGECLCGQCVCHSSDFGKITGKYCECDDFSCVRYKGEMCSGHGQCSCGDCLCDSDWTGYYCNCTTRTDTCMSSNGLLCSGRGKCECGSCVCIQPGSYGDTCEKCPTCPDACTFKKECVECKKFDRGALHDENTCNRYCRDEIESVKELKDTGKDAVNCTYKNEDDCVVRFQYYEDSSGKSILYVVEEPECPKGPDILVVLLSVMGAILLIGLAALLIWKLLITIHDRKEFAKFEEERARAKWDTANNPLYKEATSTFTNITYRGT
Chain of Integrin alpha-V/beta-3 (P06756 31-889 limits assumed): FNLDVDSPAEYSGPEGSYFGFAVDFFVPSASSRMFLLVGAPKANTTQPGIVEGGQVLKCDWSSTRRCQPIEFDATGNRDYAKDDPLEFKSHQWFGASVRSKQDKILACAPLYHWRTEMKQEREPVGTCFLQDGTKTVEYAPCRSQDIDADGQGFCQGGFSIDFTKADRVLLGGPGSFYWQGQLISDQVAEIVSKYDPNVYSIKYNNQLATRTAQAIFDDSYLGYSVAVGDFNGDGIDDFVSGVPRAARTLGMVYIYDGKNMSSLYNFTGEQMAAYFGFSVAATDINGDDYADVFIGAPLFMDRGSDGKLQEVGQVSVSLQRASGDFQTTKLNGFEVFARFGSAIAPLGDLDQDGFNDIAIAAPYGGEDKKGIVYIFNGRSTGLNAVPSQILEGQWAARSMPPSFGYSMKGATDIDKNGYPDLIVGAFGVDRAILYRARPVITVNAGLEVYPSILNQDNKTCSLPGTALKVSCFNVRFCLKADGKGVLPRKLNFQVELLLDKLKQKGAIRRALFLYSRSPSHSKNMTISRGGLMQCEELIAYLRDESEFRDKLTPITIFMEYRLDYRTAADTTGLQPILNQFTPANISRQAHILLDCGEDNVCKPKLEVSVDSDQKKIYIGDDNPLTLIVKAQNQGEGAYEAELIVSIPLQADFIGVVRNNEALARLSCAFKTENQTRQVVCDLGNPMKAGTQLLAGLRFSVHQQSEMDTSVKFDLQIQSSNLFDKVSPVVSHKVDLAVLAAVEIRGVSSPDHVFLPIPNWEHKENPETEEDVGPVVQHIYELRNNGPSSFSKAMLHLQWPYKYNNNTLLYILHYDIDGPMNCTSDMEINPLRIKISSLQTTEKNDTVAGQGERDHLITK
Chain of Integrin alpha-V/beta-3 (P06756 891-1048 limits assumed): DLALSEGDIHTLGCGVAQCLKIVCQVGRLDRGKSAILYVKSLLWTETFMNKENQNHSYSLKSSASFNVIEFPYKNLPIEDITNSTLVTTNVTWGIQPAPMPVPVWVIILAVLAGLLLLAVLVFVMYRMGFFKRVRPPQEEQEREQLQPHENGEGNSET

## CSCC[C@H](NC(=O)CC[C@H]1NC(=O)[C@H](CC(=O)O)NC(=O)CNC(=O)[C@H](CCCN=C(N)N)NC(=O)[C@H](CCCCN)NC1=O)C(=O)N[C@@H](CC(=O)O)C(=O)N[C@@H](CC(=O)O)C(=O)N1CCC[C@H]1C(=O)NCC(=O)/N=C(\N)NCCC[C@H](N)C(=O)N[C@@H](CC(N)=O)C(=O)N1CCC[C@H]1C(=O)N[C@@H](Cc1c[nH]cn1)C(=O)N[C@@H](CCCCN)C(=O)NCC(=O)N1CCC[C@H]1C(=O)N[C@@H](C)C(=O)N[C@H](C(=O)O)[C@@H](C)O
  IC50: 880 nM
